Data taken from patent US11590453B2, “Membrane disinfectant” (Diversey, Inc., priority 2017, dated 2023).

Test: pH of test solutions
Assay type: physicochemical

Measured: pH

O=[N+]([O-])O [Nitric Acid Solution, Nitric Acid]
2.00: solution of membrane compatibility test, Table 6 | solution of membrane compatibility test, Table 8 | solution of salt retention test, Table 7
